Measured values published in patent US20220401406A1, “TOPICAL FORMULATIONS AND INSTILLATES, KITS, AND METHODS FOR TREATING INT[…], AND USES THEREOF” (VinSan Therapeutics Inc., priority 2019, published 2022).

Legend:
Recalcitrant wounds = test: Further trials of topical formulations F21 to F30, nine patients; type: in vivo, human; conditions: use of the component in the formulations compared to no use of it
Protocol: Topical formulations were prepared in aliquots using the following proportions—in F21, F22, and F27 to F30, the specified amounts of CBD and THCa were supplied in 2 ml of total oil volume; in F23 and F24, the specified amount of THCa was supplied in 2 ml of total oil volume and the specified amount of CBD was supplied in 4 ml of total oil volume; in F25 and F26, the specified amount of CBD was supplied in 3 ml of total oil volume:
Recalcitrant wounds of nine were treated with Formulations F21 to F30. Formulations F21, F23, F25, F27 and F29, compounded in a mixture of hyaluronic acid and aloe vera gel, were applied to wound beds. Formulations F22, F24, F26, F28 and F30, compounded in liposomal base, were applied to periwound areas. […]

integumentary wound = test: General statements on tests of topical formulations on integumentary wounds; conditions: in vivo

Row | Compound | more rapid closure of wounds (cm^2/day), average (Recalcitrant wounds) | wound healing effects compared with decarboxylated tetrahydrocannabinol (THC) (integumentary wound)
1 | C=CC(C)(O)CCC=C(C)C (stereo not drawn) [linalool] | 3.8 times | 
2 | CCCCCc1cc2c(c(O)c1C(=O)O)[C@@H]1C=C(C)CC[C@H]1C(C)(C)O2 [THCa, tetrahydrocannabinolic acid] | 5.3 times | better wound healing effects
